Patent publication US20060287251A1, “Combination therapy for glycaemic control” (priority 2003, published 2006)

What was measured:
[1] = biological target: T1, DPIV (N-terminal Xaa-Pro releasing activity) in human plasma (Homo sapiens, UniProt P27487); assay: Ki-determination in human plasma; assay type: biochemical
T1 construct: Human plasma contains N-terminal Xaa-Pro releasing activity; from tissue; host or cells: human plasma
Method: Human plasma contains N-terminal Xaa-Pro releasing activity. 70 μL glutaminyl pyrrolidine or glutaminyl thiazolidine in an concentration range of 1*10^−5 M -1*10^−7 M (glutaminyl pyrrolidine) and 1*10^−6 M-1*10^−8 M (glutaminyl thiazolidine) respectively were admixed with 50 μL glycylprolyl-4-nitroaniline in different concentrations (0.4 mM, 0.2 mM, 0.1 mM, 0,05 mM) and 100 μl HEPES (40 mM, pH7.6). The assay mixture was pre-incubated at 30 ° C. for 5 min and 22 hours respectively. After pre-incubation, 50 μL human plasma were added and measurement of yellow color development due to 4-nitroaniline release was performed at 30° C. and λ=405 nm for 10 min using a plate reader ([HTS7000 plus, Applied Biosystems, Weiterstadt, Germany). The Ki-values were calculated using Graphit 4.0.15 (Erithacus Software, Ltd, UK) based on a competitive inhibition of DPIV by glutaminyl pyrrolidine or glutaminyl thiazolidine.

diabetic Zucker rats = assay: Dose escalation study with OGTT in fatty Zucker rats after oral administration; assay type: in vivo, rat
Method: N=30 male Zucker rats (fa/fa), mean age 11 weeks (5-12 weeks), mean body weight 350 g (150-400 g), were purchased from Charles River (Sulzfeld, Germany). After delivery they were kept for >12 weeks until nearly all fatty Zucker rats had the characteristics of manifest diabetes mellitus. A group of N=8 animals were recruited for testing three escalating doses of glutaminyl pyrrolidine vs. placebo (saline). Animals were single-caged under standardized conditions with controlled temperature (22±2° C.) on a 12/12 hours light/dark cycle (light on at 06:00 AM). Sterile standard pelleted chow (ssniff® Soest, Germany) and tap water acidified with HCl were allowed ad libitum. Fatty Zucker rats of 24-31 weeks (mean: 25 weeks) age, adapted to the housing conditions, were well prepared for the study. Catheters were implanted into the carotid artery of fatty Zucker rats under general anaesthesia (i.p. injection of 0.25 ml/kg b.w. Rompun®[2%], BayerVital, Germany and 0.5 ml/kg b.w. Ketamin 10, Atarost GmbH & Co., Twistringen, Germany). The animals were allowed to recover for one week. The catheters were flushed with heparin-saline (100 IU/ml) three times per week.
Placebo (1 ml saline, 0.154 mol/l) or escalating doses of glutaminyl pyrrolidine (5, 15 and 50 mg/kg b.w.) were administered to groups of N=8 fatty Zucker rats. 375 mg of glutaminyl pyrrolidine were dissolved in 1000 μl DMSO (E. Merck, Darmstadt; Germany [Dimethyl sulfoxide p.a.]). 10 mL saline was added and 1 ml aliquots, each containing 34.09 mg of glutaminyl pyrrolidine, were stored at −20° C. For preparation of the test substance, dose dependent aliquots were diluted in saline. After overnight fasting, placebo or test substance were administered to the fatty Zucker rats via feeding tube orally (15 G, 75 mm; Fine Science Tools, Heidelberg, Germany) at −10 min An oral glucose tolerance test (OGTT) with 2 g/kg b.w. glucose (40% solution, B. Braun Melsungen, Melsungen, Germany) was administered at ±O min via a second feeding tube. Venous blood samples from the tail veins were collected at −30 min, −15 min, ±0 min and at 5, 10, 15, 20, 30, 40, 60, 90 and 120 min into 20 lμl glass capillaries, which were placed in standard tubes filled with 1 mL solution for blood glucose measurement. All blood samples were labelled with Code number, Animal Number, Date of sampling and Time of sampling.
Glucose levels were measured using the glucose oxidase procedure (Super G Glucose analyzer; Dr. Müller Gerältebau, Freital, Germany).
Statistical evaluations and graphics were performed with PRISM® 3.02 (GraphPad Software, Inc.). All parameters were analysed in a descriptive manner including mean and SD. […]

porcine DP II = biological target: T2, porcine DP II (Sus scrofa, UniProt A0A5G2QK18); assay: Inhibition of DP IV-like enzymes: dipeptidyl peptidase II; assay type: biochemical; conditions: substrate lysylalanylaminomethylcoumarine, pH 7.6, 30 °C
T2 construct: The enzyme used was purified from porcine kidney; from tissue; host or cells: porcine kidney
T2 sequence (A0A5G2QK18 28-502): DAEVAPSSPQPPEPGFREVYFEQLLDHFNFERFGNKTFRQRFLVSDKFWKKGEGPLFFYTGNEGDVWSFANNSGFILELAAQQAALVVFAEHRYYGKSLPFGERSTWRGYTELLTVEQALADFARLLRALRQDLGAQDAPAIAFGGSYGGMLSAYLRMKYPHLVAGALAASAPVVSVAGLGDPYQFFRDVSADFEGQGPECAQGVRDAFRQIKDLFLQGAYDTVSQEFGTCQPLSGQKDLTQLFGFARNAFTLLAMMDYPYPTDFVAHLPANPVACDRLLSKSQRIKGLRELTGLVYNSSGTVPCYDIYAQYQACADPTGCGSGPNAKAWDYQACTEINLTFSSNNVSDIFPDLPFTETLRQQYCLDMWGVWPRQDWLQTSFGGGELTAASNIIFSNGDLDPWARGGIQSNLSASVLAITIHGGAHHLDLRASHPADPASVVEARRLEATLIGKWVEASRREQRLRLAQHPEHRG
Method: DP II (3.4.14.2) releases N-terminal dipeptides from oligopeptides if the N-terminus is not protonated (McDonald, J. K., Ellis, S. & Reilly, T. J., 1966, J Biol. Chem., 241, 1494-1501). Pro and Ala in P1-position are preferred residues. The enzyme activity is described as DPIV-like activity, but DP II has an acidic pH-optimum. The enzyme used was purified from porcine kidney. 100 μL glutaminyl pyrrolidine or glutaminyl thiazolidine in an concentration range of 1*10^−4M-5*10^−8M were admixed with 100 μL buffer solution (40 mM HEPES, pH 7.6, 0.015% Brij, 1 mM DTT), 50 μL lysylalanylaminomethylcoumarine solution (5 mM) and 20 μl porcine DP II (250 fold diluted in buffer solution). Fluorescence measurement was performed at 30° C. and λexiatation=380 nm, λemission=465 nm for 25 min using a plate reader (HTS7000 plus, Applied Biosystems, Weiterstadt, Germany).

[2] = 5, 15 and 50 mg/kg b.w. oral (dose escalation)

T1 sequence (P27487 39-766 limits assumed): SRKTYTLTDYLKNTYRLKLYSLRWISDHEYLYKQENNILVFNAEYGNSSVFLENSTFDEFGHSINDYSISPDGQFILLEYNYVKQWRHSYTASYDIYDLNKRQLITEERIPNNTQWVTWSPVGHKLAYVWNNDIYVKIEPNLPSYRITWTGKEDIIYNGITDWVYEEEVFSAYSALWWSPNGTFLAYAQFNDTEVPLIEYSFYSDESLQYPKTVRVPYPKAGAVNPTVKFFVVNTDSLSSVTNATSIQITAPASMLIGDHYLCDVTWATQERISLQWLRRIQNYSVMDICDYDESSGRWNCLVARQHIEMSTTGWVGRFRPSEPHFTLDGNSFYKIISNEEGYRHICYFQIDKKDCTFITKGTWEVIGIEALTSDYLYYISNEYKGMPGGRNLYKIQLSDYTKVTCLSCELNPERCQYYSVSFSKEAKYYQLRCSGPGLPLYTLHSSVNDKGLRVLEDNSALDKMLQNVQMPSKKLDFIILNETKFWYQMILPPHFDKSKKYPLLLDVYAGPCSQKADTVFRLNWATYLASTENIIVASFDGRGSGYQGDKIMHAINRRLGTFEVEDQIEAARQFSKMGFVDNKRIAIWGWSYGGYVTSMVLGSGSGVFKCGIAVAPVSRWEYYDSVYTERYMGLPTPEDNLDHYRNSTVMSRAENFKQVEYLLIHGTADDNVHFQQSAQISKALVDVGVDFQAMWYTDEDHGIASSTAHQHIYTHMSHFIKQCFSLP

SMILES: NC(=O)CC[C@H](N)C(=O)N1CCCC1 [glutaminyl pyrrolidine]
- Ki ([1]; after 5 min pre-incubation): 1300 nM
- Ki ([1]; after 22 hours pre-incubation): 1360 nM
- glucose tolerance in OGTT (diabetic Zucker rats; 5 mg/kg b.w. oral, OGTT 2 g/kg glucose): limited improvement of glucose tolerance
- blood glucose levels and glucose tolerance in OGTT (diabetic Zucker rats; 15 mg/kg and 50 mg/kg b.w. oral, OGTT 2 g/kg glucose): Significant lowering of elevated blood glucose levels and improvement of glucose tolerance
- blood glucose levels and glucose tolerance in OGTT (diabetic Zucker rats; [2]): dose dependent lowering of elevated blood glucose levels
- Ki (porcine DP II): 85.2 µM

SMILES: NC(=O)CC[C@H](N)C(=O)N1CCSC1 [glutaminyl thiazolidine]
- Ki ([1]; after 5 min pre-incubation): 403 nM
- Ki ([1]; after 22 hours pre-incubation): 513 nM
- blood glucose levels and glucose tolerance in OGTT (diabetic Zucker rats; [2]): dose dependent lowering of elevated blood glucose levels and improvement of glucose tolerance
- Ki (porcine DP II): 10.7 µM
